Source: PMC5917010, “Structural basis for GPR40 allosteric agonism and incretin stimulation” (Nature Communications, 2018)
Where two headings read alike, the source gives them in different places.

Columns and labels:
human GPR40 = biological target: T1, human GPR40 (Homo sapiens, UniProt O14842); assay: Human GPR40 Calcium (Supplementary Table 1); type: cell-based
T1 construct: HEK293 cells stably overexpressing full length human GPR40; expressed in transfected cells

human GPR40 (A1 site) = biological target: T2, human GPR40 (A1 site) (Homo sapiens, UniProt O14842); assay: A1 site radioligand binding with [3H]-TAK-875
T2 construct: full length recombinant human GPR40 (GPR40) cDNA; expressed in transfected cells; host or cells: HEK 293, stably transfected; crude cell surface membranes
Protocol: Crude cell surface membranes were prepared from human embryonic kidney 293 (HEK 293) cells stably transfected (for the wild type) or transiently transfected (for the mutants and corresponding wild type) with full length recombinant human GPR40 (GPR40) cDNA, using differential centrifugation methods.
A1 Site Binding. 10 µL of compound diluted in 100% DMSO and 90 µL of Assay Buffer (50 mM Tris-HCl, pH 7.5, 5 mM CaCl2, 5 mM MgCl2, 0.1% w/v fatty acid-free BSA) were added to a deep 96-well polypropylene assay plate (Beckman Coulter).
Assays were terminated by filtration through GF/C glass fiber filtermats (Perkin Elmer) presoaked in 50 mM Tris–HCl, pH 7.5, using a Mach III cell harvester (TomTec). Filtermats were washed two times with 5 mL of ice-cold 50 mM Tris–HCl, pH 7.5 buffer, dried 1 h in a convection oven at 60 °C and embedded with Meltilex A solid scintillant (Perkin Elmer). Radioactivity was determined as counts per min (cpm) using a Trilux Microbeta plate scintillation counter (Perkin Elmer).

GPR40 KO mice = assay: Incretin secretion assay in GPR40 KO mice; type: in vivo, mouse
[1] = Human hepatocyte clearance; type: in vitro ADME; conditions: hepatocytes
hCDK2 = hCDK2 (Homo sapiens, UniProt P24941); assay: hCDK2 binding
hRORgamma = hRORgamma (Homo sapiens, UniProt P51449); assay: hRORgamma binding
[2] = system: GPR40 knock-out (KO) mice; assay: IPGTT in GPR40 knock-out mice; type: in vivo, mouse; conditions: high dose of compound 1
Protocol: Nine to ten week old male ICR mice (Envigo) and GPR40 KO mice (Taconic) were used. The day before an IPGTT (~1600), animals were fasted in clean cages. The following morning (~0800), animals were randomized on fasting glucose and body weight (N = 6 per group). Mice were orally administered a test article or vehicle 60 min prior to an intraperitoneal (IP) injection of glucose (2g/kg). Blood glucose levels were determined by a glucometer from tail bleeds taken at 0, 15, 30, 60, and 120 min after the glucose challenge. An average of two readings were reported at each time point. Also, blood samples were collected into serum tubes at 0, 3, 6, and 15 min post glucose injection for insulin measurement. Serum tubes were centrifuged at 3000g for 5 min and serum transferred into 96-well plates for insulin analysis by a Mesoscale rat/mouse insulin assay.

T2 sequence (O14842 whole entry): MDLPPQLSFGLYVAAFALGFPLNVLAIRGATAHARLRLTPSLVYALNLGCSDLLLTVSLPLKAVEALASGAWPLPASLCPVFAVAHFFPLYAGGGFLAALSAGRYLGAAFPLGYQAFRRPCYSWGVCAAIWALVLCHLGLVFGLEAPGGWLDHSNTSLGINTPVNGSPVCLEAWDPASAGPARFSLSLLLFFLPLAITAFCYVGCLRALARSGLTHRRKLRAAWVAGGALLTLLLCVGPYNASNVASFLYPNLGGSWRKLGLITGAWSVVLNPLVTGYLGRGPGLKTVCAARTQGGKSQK
Sequence of hRORgamma (P51449 whole entry): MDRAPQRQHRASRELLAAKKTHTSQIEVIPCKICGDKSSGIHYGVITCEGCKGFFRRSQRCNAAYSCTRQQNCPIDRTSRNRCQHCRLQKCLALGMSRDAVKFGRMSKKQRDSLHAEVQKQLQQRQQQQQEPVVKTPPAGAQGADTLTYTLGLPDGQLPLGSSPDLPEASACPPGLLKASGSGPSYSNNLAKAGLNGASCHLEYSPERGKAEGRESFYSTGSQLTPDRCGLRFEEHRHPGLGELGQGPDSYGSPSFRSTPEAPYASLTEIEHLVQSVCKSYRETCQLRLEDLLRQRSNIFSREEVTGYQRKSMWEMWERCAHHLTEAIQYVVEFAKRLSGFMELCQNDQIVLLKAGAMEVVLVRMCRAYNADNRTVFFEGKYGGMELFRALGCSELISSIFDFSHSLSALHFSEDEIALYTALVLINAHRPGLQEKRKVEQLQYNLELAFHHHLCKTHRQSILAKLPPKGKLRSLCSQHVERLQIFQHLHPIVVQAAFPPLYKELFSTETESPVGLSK
T1 sequence (O14842 whole entry): as the sequence (O14842 whole entry) above

## COc1ccc(C(=O)N(CC(C)(C)C)c2cccc(C)n2)c(N2CCC(c3cc4ccc([C@@H](CC(=O)O)C5CC5)cc4o3)CC2)c1 [compound 1]
Human GPR40
  Emax: 110%
Human GPR40 (A1 site); Supplementary Table 1
  Ki: > 5.59 µM
Human GPR40 (A1 site); addition of unlabeled compound, membranes from stably transfected cells
  effect on [3H]-TAK-875 binding: enhanced binding activity
Human GPR40 (A1 site); allosteric modulator titration equation, [3H]-TAK-875 binding, Fig. 1a
  affinity modulation factor (α): 2.4
GPR40 KO mice
  plasma active GIP concentrations, GPR40 KO: no effect
  plasma total GLP-1 concentrations, GPR40 KO: no effect
[1]; no ABT, read-out: Human Hepatocyte Clearance no ABT % Recovery
  recovery: 103%
[1]; no ABT, read-out: Human Hepatocyte Clearance no ABT Intrinsic Clearance
  hepatocyte CLint: 8.8 µL/min/1e6 cells
[1]; with ABT (concentration not stated), read-out: Human Hepatocyte Clearance ABT % Recovery
  recovery: 92.8%
[1]; with ABT, read-out: Human Hepatocyte Clearance ABT Intrinsic Clearance
  hepatocyte CLint: < 1.8 µL/min/1e6 cells
hCDK2
  IC50: > 20 µM
hRORgamma
  Ki: > 20 µM
[2]
  glucose lowering in IPGTT, GPR40 KO: not observed
  insulin secretion in IPGTT, GPR40 KO: not observed
